Data from ChEMBL document CHEMBL1201862, “PubChem BioAssay data set” (2004).
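Grown in 96-well plates, cells were treated for 48 hours with each compound at five concentrations. Insufficient inhibition: endpoint recorded as highest concentration tested. Here, GI50 denotes the concentration required for 50% inhibition of growth.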 Active and inactive are the calls of the source. Cut-off read from the data, not from the text of the source: active = GI50 up to about 1.1 µM and inactive = higher.

What was measured:
Assay in all cases: NCI tumour cell line growth inhibition, 48 h
786-0 = tested on: 786-0
A498 = tested on: A498
A549 = tested on: A549
CAKI-1 = tested on: CAKI-1
CCRF-CEM = tested on: CCRF-CEM
COLO 205 = tested on: COLO 205
DLD-1 = tested on: DLD-1
DMS-114 = tested on: DMS-114
DMS-273 = tested on: DMS-273
EKVX = tested on: EKVX
HCC 2998 = tested on: HCC 2998
HCT-116 = tested on: HCT-116
HL-60 = tested on: HL-60
HOP-62 = tested on: HOP-62
HOP-92 = tested on: HOP-92
HT-29 = tested on: HT-29
IGROV-1 = tested on: IGROV-1
K562 = tested on: K562
KM-20L2 = tested on: KM-20L2
LOX IMVI = tested on: LOX IMVI
LXFL 529 = tested on: LXFL 529
M14 = tested on: M14
MOLT-4 = tested on: MOLT-4
Malme-3M = tested on: Malme-3M
NCI-H226 = tested on: NCI-H226
NCI-H23 = tested on: NCI-H23
NCI-H460 = tested on: NCI-H460
NCI-H522 = tested on: NCI-H522
OVCAR-3 = tested on: OVCAR-3
OVCAR-4 = tested on: OVCAR-4
OVCAR-5 = tested on: OVCAR-5
OVCAR-8 = tested on: OVCAR-8
RPMI-8226 = tested on: RPMI-8226
SF-268 = tested on: SF-268
SF-295 = tested on: SF-295
SF-539 = tested on: SF-539
SK-MEL-28 = tested on: SK-MEL-28
SK-MEL-2 = tested on: SK-MEL-2
SK-MEL-5 = tested on: SK-MEL-5
SK-OV-3 = tested on: SK-OV-3
SN12C = tested on: SN12C
SNB-19 = tested on: SNB-19
SNB-75 = tested on: SNB-75
SNB-78 = tested on: SNB-78
SW-620 = tested on: SW-620
TK-10 = tested on: TK-10
U-251 = tested on: U-251
UACC-257 = tested on: UACC-257
UACC-62 = tested on: UACC-62
UO-31 = tested on: UO-31
XF498 = tested on: XF498
ACHN = tested on: ACHN
BT-549 = tested on: BT-549
DU-145 = tested on: DU-145
HCT-15 = tested on: HCT-15
HOP-18 = tested on: HOP-18
Hs-578T = tested on: Hs-578T
KM12 = tested on: KM12
M19-MEL = tested on: M19-MEL
MCF7 = tested on: MCF7
MDA-MB-231 = tested on: MDA-MB-231
MDA-MB-435 = tested on: MDA-MB-435
MDA-N = tested on: MDA-N
NCI/ADR-RES = tested on: NCI/ADR-RES
PC-3 = tested on: PC-3
RXF 393 = tested on: RXF 393
SR = tested on: SR
T47D = tested on: T47D

Cc1c2ccncc2c(C)c2c1[nH]c1ccc(O)c(OCC(F)(F)F)c12
GI50 (786-0): 2.01 µM (inactive) | GI50 (A498): 15.2 µM (inactive) | GI50 (A549): 3.9 µM (inactive) | GI50 (CAKI-1): 9.62 µM (inactive) | GI50 (CCRF-CEM): 2.33 µM (inactive) | GI50 (COLO 205): 11.9 µM (inactive) | GI50 (DLD-1): 8 µM (inactive) | GI50 (DMS-114): 2.44 µM (inactive) | GI50 (DMS-273): 1.79 µM (inactive) | GI50 (EKVX): 10.3 µM (inactive) | GI50 (HCC 2998): 9.42 µM (inactive) | GI50 (HCT-116): 2.39 µM (inactive) | GI50 (HL-60): 2.9 µM (inactive) | GI50 (HOP-62): 10.8 µM (inactive) | GI50 (HOP-92): 5.47 µM (inactive) | GI50 (HT-29): > 7.5 µM (inactive) | GI50 (IGROV-1): 8.22 µM (inactive) | GI50 (K562): 3.16 µM (inactive) | GI50 (KM-20L2): 12.2 µM (inactive) | GI50 (LOX IMVI): 1.38 µM (inactive) | GI50 (LXFL 529): 5.12 µM (inactive) | GI50 (M14): 9.55 µM (inactive) | GI50 (MOLT-4): 2.01 µM (inactive) | GI50 (Malme-3M): 11.9 µM (inactive) | GI50 (NCI-H226): 8.13 µM (inactive) | GI50 (NCI-H23): 6.1 µM (inactive) | GI50 (NCI-H460): 2.18 µM (inactive) | GI50 (NCI-H522): 4.5 µM (inactive) | GI50 (OVCAR-3): 7.8 µM (inactive) | GI50 (OVCAR-4): 4.08 µM (inactive) | GI50 (OVCAR-5): 12.6 µM (inactive) | GI50 (OVCAR-8): 3.03 µM (inactive) | GI50 (RPMI-8226): 2.1 µM (inactive) | GI50 (SF-268): 8.67 µM (inactive) | GI50 (SF-295): 5.21 µM (inactive) | GI50 (SF-539): 6.05 µM (inactive) | GI50 (SK-MEL-28): 10.8 µM (inactive) | GI50 (SK-MEL-2): 12 µM (inactive) | GI50 (SK-MEL-5): 5.56 µM (inactive) | GI50 (SK-OV-3): 10.2 µM (inactive) | GI50 (SN12C): 8.2 µM (inactive) | GI50 (SNB-19): 2.11 µM (inactive) | GI50 (SNB-75): 9.93 µM (inactive) | GI50 (SNB-78): 4.47 µM (inactive) | GI50 (SW-620): 3.55 µM (inactive) | GI50 (TK-10): 13.6 µM (inactive) | GI50 (U-251): 2.7 µM (inactive) | GI50 (UACC-257): 10.6 µM (inactive) | GI50 (UACC-62): 10.5 µM (inactive) | GI50 (UO-31): 9.66 µM (inactive) | GI50 (XF498): 12.6 µM (inactive)

CCCCCCCCCCCCCCCC(=O)OCC1OC(n2ccc(N)nc2=O)C(O)C1O (stereo unspecified)
GI50 (786-0): 4.29 µM (inactive) | GI50 (A498): 4.49 µM (inactive) | GI50 (A549): 0.601 µM (active) | GI50 (ACHN): 0.753 µM (active) | GI50 (BT-549): > 100 µM (inactive) | GI50 (CAKI-1): 5.36 µM (inactive) | GI50 (CCRF-CEM): 0.0106 µM (active) | GI50 (COLO 205): 15 µM (inactive) | GI50 (DMS-273): 2.04 µM (inactive) | GI50 (DU-145): 2.12 µM (inactive) | GI50 (EKVX): > 69 µM (inactive) | GI50 (HCC 2998): 8.47 µM (inactive) | GI50 (HCT-116): 2.22 µM (inactive) | GI50 (HCT-15): > 42.2 µM | GI50 (HL-60): 0.59 µM (active) | GI50 (HOP-18): 6.31 µM (inactive) | GI50 (HOP-62): 0.403 µM (active) | GI50 (HOP-92): > 28.8 µM (inactive) | GI50 (HT-29): 35.2 µM (inactive) | GI50 (Hs-578T): > 100 µM (inactive) | GI50 (IGROV-1): > 100 µM (inactive) | GI50 (K562): 8.24 µM (inactive) | GI50 (KM-20L2): > 24.8 µM (inactive) | GI50 (KM12): > 100 µM (inactive) | GI50 (LOX IMVI): 4.7 µM (inactive) | GI50 (LXFL 529): > 100 µM (inactive) | GI50 (M14): 0.931 µM (active) | GI50 (M19-MEL): 2.26 µM (inactive) | GI50 (MCF7): 1.06 µM (active) | GI50 (MDA-MB-231): > 100 µM (inactive) | GI50 (MDA-MB-435): 6.75 µM (inactive) | GI50 (MDA-N): > 100 µM (inactive) | GI50 (MOLT-4): 0.0274 µM (active) | GI50 (Malme-3M): 5.28 µM (inactive) | GI50 (NCI-H226): > 100 µM (inactive) | GI50 (NCI-H23): 1.25 µM (inactive) | GI50 (NCI-H460): 0.401 µM (active) | GI50 (NCI-H522): 3.08 µM (inactive) | GI50 (NCI/ADR-RES): > 48.3 µM (inactive) | GI50 (OVCAR-3): > 28.2 µM (inactive) | GI50 (OVCAR-4): > 100 µM (inactive) | GI50 (OVCAR-5): > 38 µM (inactive) | GI50 (OVCAR-8): 2.39 µM (inactive) | GI50 (PC-3): > 100 µM (inactive) | GI50 (RPMI-8226): > 87.9 µM (inactive) | GI50 (RXF 393): > 85.3 µM (inactive) | GI50 (SF-268): 12.1 µM (inactive) | GI50 (SF-295): 44.8 µM (inactive) | GI50 (SF-539): > 100 µM (inactive) | GI50 (SK-MEL-28): 33.5 µM (inactive) | GI50 (SK-MEL-2): > 100 µM (inactive) | GI50 (SK-MEL-5): 18.5 µM (inactive) | GI50 (SK-OV-3): 15.5 µM (inactive) | GI50 (SN12C): 9.95 µM (inactive) | GI50 (SNB-19): 16.9 µM (inactive) | GI50 (SNB-75): > 100 µM (inactive) | GI50 (SNB-78): > 100 µM (inactive) | GI50 (SR): 1.5 µM (inactive) | GI50 (T47D): > 100 µM (inactive) | GI50 (TK-10): > 96.4 µM (inactive) | GI50 (U-251): 21.8 µM (inactive) | GI50 (UACC-257): 33.4 µM (inactive) | GI50 (UACC-62): 11.4 µM (inactive) | GI50 (UO-31): 1.67 µM (inactive) | GI50 (XF498): > 100 µM (inactive)
